We go through 1 compound from patent publication US20070010486A1 (priority 2005, published 2007).

Counter-ions that a name gives are not always drawn.

The conditions of this series: use of CAPTISOL

As for `OC(COc1cccc2ncccc12)CN1CCN([C@@H]2c3ccccc3[C@@H]3[C@H](c4ccccc42)C3(F)F)CC1` (stereo partly shown) [zosuquidar trihydrochloride], the “increase in water solubility” value is recorded as greater than 5 fold.
